Results from the NIST ThermoML archive (doi:10.1021/je800463k).

Experiment: mn = molality of the nth substance listed, in mol/kg
Conditions: 101 kPa, Liquid; for mass density: Pycnometric method; for electrical conductivity: Frequency=0.001 MHz, Alternating current cell with electrodes; for speed of sound: Frequency=2 MHz

O=[N+]([O-])[O-].O=[N+]([O-])[O-].[Mg+2] [magnesium nitrate] + CO
Conditions	electrical conductivity [S/m]	mass density [kg/m3]	speed of sound [m/s]	viscosity [mPa·s]
301.25 K, m1 = 0.4024	–	827.04	–	–
301.3 K, m1 = 0.0082	–	785.69	–	–
301.4 K, m1 = 0.2776	–	814.59	–	–
301.4 K, m1 = 1.71	–	952.09	–	–
302.05 K, m1 = 0.0545	–	790.26	–	–
302.2 K, m1 = 0.4555	–	830.9	–	–
302.25 K, m1 = 0.782	–	868.46	–	–
302.45 K, m1 = 0.1047	–	796.51	–	–
302.55 K, m1 = 1.004	–	883.47	–	–
302.7 K, m1 = 0.6276	–	848.25	–	–
302.7 K, m1 = 1.259	–	910.86	–	–
302.85 K, m1 = 1.875	–	961.69	–	–
303.15 K, m1 = 0.0082	0.1462	783.99	1091.9	0.5215
303.15 K, m1 = 0.0545	0.4108	–	1098.1	0.5545
303.15 K, m1 = 0.0667	0.4481	–	1096.9	0.5716
303.15 K, m1 = 0.1047	0.5889	–	1102.5	0.5909
303.15 K, m1 = 0.2776	1.123	–	1121.5	0.6836
303.15 K, m1 = 0.4024	1.41	–	1132.5	0.7943
303.15 K, m1 = 0.4555	1.489	–	1139.1	0.8264
303.15 K, m1 = 0.6276	1.775	–	1155.5	1.05
303.15 K, m1 = 0.782	1.979	–	1172.9	1.177
303.15 K, m1 = 0.881	2.037	–	1179.3	1.184
303.15 K, m1 = 0.9116	2.054	–	1182.3	1.245
303.15 K, m1 = 1.004	2.136	–	1196.9	1.354
303.15 K, m1 = 1.259	2.213	–	1219.1	1.875
303.15 K, m1 = 1.492	2.223	–	1243	2.267
303.15 K, m1 = 1.71	2.246	–	1263.7	2.73
303.15 K, m1 = 1.875	2.217	–	1272.7	3.138
303.25 K, m1 = 0.4024	–	825.26	–	–
303.4 K, m1 = 0.2776	–	812.83	–	–
303.4 K, m1 = 1.492	–	932.03	–	–
303.75 K, m1 = 0.0545	–	788.57	–	–
303.85 K, m1 = 0.881	–	868.76	–	–
304 K, m1 = 0.0082	–	782.31	–	–
304.1 K, m1 = 0.782	–	866.62	–	–
304.2 K, m1 = 0.4555	–	829.11	–	–
304.25 K, m1 = 0.1047	–	794.8	–	–
304.35 K, m1 = 0.0667	–	789.8	–	–
304.65 K, m1 = 0.6276	–	846.53	–	–
304.65 K, m1 = 1.004	–	881.56	–	–
